How the values were obtained:
RNase L [1] = experiment: Radiobinding assay: competition with p3 A4 [^32 P]pCp for binding to RNase L in L929 cell extracts; design: species or system murine; details: in words
Procedure: RNase L was obtained from L929 cells by the following procedure. The L929 cells were maintained in monolayer culture in Dulbecco's modified Eagle medium supplemented with 5% bovine serum. Monolayers were tested with 200 units/ml of mouse interferon for 20 hours. Cell extracts of the L929 cells were prepared by collecting the cells by trypsinization, washing them once with phosphate-buffered saline and lysing the cells in NP40 buffer according to the method of Silverman, et al., Eur. J. Biochem. 124:131-138 (1982).
The ability of 8-azido-p3 A3 to compete with p3 A4 -[^32 P]pCp for binding to RNase L in the L929 cell extracts was compared to p3 A3 using radiobinding assays (50 micrograms of protein/assay) according to the method of Knight et al., Methods Enzymol. 79:216-227 (1981). […] 8-Azido-p3 A3 (FIG. 1A, solid circle data points) binds to RNase L with an IC50 of 2×10^-9 M, which is equivalent to the IC50 of authentic p3 A3 (FIG. 1A, solid triangle data points).

RNase L [2] = experiment: Core-cellulose assay: activation of partially purified RNase L to hydrolyze poly(U)[^32 P]pCp; assay type: biochemical, murine; details: in words
Source text: The recently developed core cellulose assay of Silverman, Anal. Biochem. 144:450-460 (1985), which involves the immobilization and partial purification of RNase L on 2-5A core-cellulose, was used to measure the ability of 8-azido-p3 A3 to activate RNase L. For this purpose, poly(U)[^32 P]pCp was synthesized from poly(U) using T4 RNA ligase, as described by Silverman. 8-Azido-p3 A3 (solid circle data

RNase L [3] = experiment: rRNA cleavage assay: activation of RNase L in L929 cell extracts; assay type: biochemical, murine; details: for final concentration at which RNase L is activated to degrade rRNA to specific cleavage products / concentration dependence of rRNA degradation / potency in rRNA degradation relative to authentic p3 A3: L929 cell extracts; for final concentration at which RNase L is activated to degrade rRNA to specific cleavage products: "as low as"; for concentration dependence of rRNA degradation / potency in rRNA degradation relative to authentic p3 A3 / biological activity (RNase L binding and activation) relative to authentic 2-5A: in words
Procedure: FIG. 2 represents a rRNA cleavage assay with 2-azido-p3 A3 and 8-azido-p3 A3 L929 cell extracts were incubated in the absence (lane 4) or presence of p3 A3 (lane 1), 2-azido-p3 A3 (lane 2), or 8-azido-p3 A3 (lane 3) at 1 x 10^-8 M final concentrations. The positions of 28S and 18S rRNA, and the positions of RNase L specific cleavage products ("SCP"), are indicated.
Activation of RNase L by the compounds of the invention was also measured in a ribosomal RNA cleavage assay using L929 cell extracts. The extracts were prepared in glycerol buffer in 15 microliters final volume as described by Kariko et al., Biochem. Biophys. Res. Commun. 128:695-698 (1985).

[4] = tested on: 2-5A binding proteins from L929 cells (believed to be forms of RNase L); experiment: Photoaffinity labelling / covalent cross-linking of 2-5A binding proteins in interferon-treated L929 cell extracts (SDS-PAGE, autoradiography); design: species or system murine; details: for UV exposure time for maximal photo-crosslinking: 254 nm, 0° C.; for molecular weight of protein(s) specifically photolabelled / cross-linked: L929 cell extracts; for molecular weight of protein(s) specifically photolabelled / cross-linked / number of proteins photolabelled / cross-linked: 60 s UV; for number of proteins photolabelled / cross-linked: interferon-treated L929 cell extracts
Procedure: FIG. 3A is an autoradiogram following SDS-PAGE of interferon-treated L929 cell extracts incubated with [gamma-^32 P]2-azido-p3 A3 at 1×10^-6 M in the absence (lane 1) or presence of p3A3 at 1×10^-5 M and 1×10^-4 M (lanes 2 and 3, respectively).The samples were UV-irradiated for 60 seconds at 0° C. prior to electrophoresis. Photolabelled proteins were detected by autoradiography. Molecular weight standards are indicated.
FIG. 4A is an autoradiogram following SDS-PAGE of interferon treated L929 cell extracts incubated with [alpha-^32 P]8-azido-p3 A3 at 1×10^-6 M in the absence (lanes 1 and 2) or presence of the following: p3 A3 at 1×10^-4 M (lane 3); p3 A3 at 5×10^-4 M (lane 4); or 3'-5'A3 at 5×10^-4 M (lane 5). The samples were UV irradiated (lanes 2-6) for 60 seconds at 0° C. prior to electrophoresis. Under identical experimental conditions, the L929 cell extract was incubated with p3 A4 [^32 P]pCp at 1×10^-8 M (lane 6). Photolabelled proteins were detected by autoradiography.
Ten microliters of L929 cell extracts (100 micrograms protein/assay) were combined with 10 microliters of a buffer (140 mM NaCl, 35 mM Tris-HCl, pH 7.5) and were incubated in the presence of 1×10^-6 M [gamma-^32 p]2-azido -p3 A3 (0.9 microCi/nmol) or 1×10^-6 M [alpha-^32 p]8-azido -p3 A3 (0.9 microCi/nmol) or 1×10^-9 M p3 A4 [^32 P]pCp (3 mCi/nmol) in a 30 microliter final volume. The samples, after incubation in microcentrifuge tubes at 0° C. for 90 minutes, were transferred into ice-mold porcelain spot plates and photolysed for 60 seconds using a 254 nm UVG-11 Mineralight lamp (Ultraviolet Products, Inc.) at a distance of 2 cm (1.0 J/m^2). Sixty microliters of a reductive, protein-solubilizing mixture (15.4 mg/ml dithiothreitol, 25% w/v sucrose, 2.5% sodium dodecylsulfate, 25 mM TrisHCl, pH 8.0, 0.0025% pyronine Y) were added to the samples. Photo-incorporation of the ^32 P-labeled 2-azido-p3 A3 and 8-azido-p3 A3 into the L929 protein was determined by SDS-PAGE (Lamelli, Nature (London) 227:680-685 (1970)). The SDS-PAGE gels were stained with Coomassie blue, dried and subject to autoradiography at -70° C. with X-Omat film (Kodak).

RNase L [5] = experiment: rRNA cleavage assay with photolabelled RNase L/8-azido-p3 A3 complex; assay type: biochemical, murine; details: 1×10^-6 M 8-azido-p3 A3, 60 s UV 254 nm; in words
Procedure: Ten microliters of L929 cell extract (100 microgram protein/assay) were combined with ten microliters buffer (140 mM NaCl, 35 mM Tris-HCl, pH 7.5) and were incubated in the presence of 1×10^-6 M 8-azido-p3 A3 in a 30 microliter final volume. The sample was transferred to ice-cold porcelain spot plates and photolysed for 60 second using a 254 nm UVG-11 Mineralight lamp at a distance of 2 cm (1.0 J/m^2) to photolabel the RNase L/8-azido-p3 A3 complex. A ribosomal RNA cleavage assay was performed as described above, but using the photolabelled complex.

| Substance | inhibition of p3 A4 [^32 P]pCp binding to RNase L (RNase L [1]) | potency in activating RNase L relative to authentic p3 A3 (RNase L [2]) | final concentration at which RNase L is activated to degrade rRNA to specific cleavage products (RNase L [3]) | concentration dependence of rRNA degradation (RNase L [3]) | potency in rRNA degradation relative to authentic p3 A3 (RNase L [3]) | biological activity (RNase L binding and activation) relative to authentic 2-5A (RNase L [3]) | UV exposure time for maximal photo-crosslinking [4] | molecular weight of protein(s) specifically photolabelled / cross-linked [4] | number of proteins photolabelled / cross-linked [4] | rRNA cleavage by RNase L after photolabelling (RNase L [5]) | size of photolabelled protein ([4]; 1×10^-6 M [gamma-^32 P]2-azido-p3 A3, 60 s UV, protein a) |
| --- | --- | --- | --- | --- | --- | --- | --- | --- | --- | --- | --- |
| 5'-0-triphosphoryl-(8-azidoadenylyl)(2'-5')8-azidoadenylyl(2'-5')8-azidoadenosine [8-azido-p3 A3] | inhibited p3 A4 [^32 P]pCp binding to RNase L in a concentration dependent manner | equipotent to authentic p3 A3 | 10^-9 M | concentration dependent | as potent as authentic p3 A3 | almost identical to that of authentic 2-5A | 60 s | 46,000-158,000 | six | observed to cleave 18S and 28S rRNA to the same specific cleavage products characteristic of RNase L activation by 8-azido-p3 A3 without photoactivation |  |
| 5'-0-triphosphoryl-(2-azidoadenylyl)(2'-5')2-azidoadenylyl(2'5')2-azidoadenosine [2-azido-p3 A3] |  |  | 10^-9 M | concentration dependent | as potent as authentic p3 A3 | almost identical to that of authentic 2-5A | 60 s | 185,000 | one |  | 185,000 dalton |
